Molecular target: T1, mouse androgen receptor (Mus musculus, UniProt P19091)
T1 sequence (P19091 1-899): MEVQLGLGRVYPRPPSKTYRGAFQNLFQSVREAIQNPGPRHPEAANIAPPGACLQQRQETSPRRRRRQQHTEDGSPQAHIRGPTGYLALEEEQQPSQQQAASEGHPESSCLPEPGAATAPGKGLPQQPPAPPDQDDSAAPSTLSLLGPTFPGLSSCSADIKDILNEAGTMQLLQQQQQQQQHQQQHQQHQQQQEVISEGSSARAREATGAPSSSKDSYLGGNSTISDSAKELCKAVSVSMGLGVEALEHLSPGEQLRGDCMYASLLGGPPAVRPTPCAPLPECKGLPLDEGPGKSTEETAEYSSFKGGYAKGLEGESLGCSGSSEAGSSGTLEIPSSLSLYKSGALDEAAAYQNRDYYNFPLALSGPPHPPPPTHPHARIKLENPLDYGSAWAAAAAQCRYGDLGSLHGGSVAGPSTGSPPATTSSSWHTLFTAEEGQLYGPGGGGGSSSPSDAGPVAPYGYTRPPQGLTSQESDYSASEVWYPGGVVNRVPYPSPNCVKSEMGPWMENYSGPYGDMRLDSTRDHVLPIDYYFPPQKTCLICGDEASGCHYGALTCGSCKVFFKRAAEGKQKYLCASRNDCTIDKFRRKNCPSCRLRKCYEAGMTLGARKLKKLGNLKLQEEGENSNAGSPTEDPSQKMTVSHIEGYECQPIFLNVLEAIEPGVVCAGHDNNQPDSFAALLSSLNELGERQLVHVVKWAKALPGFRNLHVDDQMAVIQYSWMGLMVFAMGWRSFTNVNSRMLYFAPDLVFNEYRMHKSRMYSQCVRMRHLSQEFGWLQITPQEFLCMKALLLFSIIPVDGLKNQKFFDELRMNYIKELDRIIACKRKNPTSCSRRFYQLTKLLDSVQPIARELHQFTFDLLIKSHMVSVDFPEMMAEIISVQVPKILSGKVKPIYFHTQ
Settings: compete for binding sites only at high concentrations
Description: Bound and free steroids are separated by dextran-coated charcoal (0.5% Norit A and 0.05% dextran). Specific binding is determined by subtracting non-specific from total binding.

CC(C)(O)C(=O)Nc1ccc([N+](=O)[O-])c(C(F)(F)F)c1 [hyroxyl-flutamide]
affinity for the androgen receptor (in words): lower affinity

Reference: patent EP0577932A2, “Development of a mechanism-based screen to identify androgen receptor agonists and antagonists” (AMERICAN CYANAMID COMPANY, priority 1992, dated 1994)
